# Key:
# cells [1] = details: Homo sapiens, NCI-H460, 72 h
# Description: Cytotoxicity against human NCI-H460 cells assessed as reduction in cell proliferation after 72 hrs by MTT assay
# cells [2] = details: Homo sapiens, HCC78, 72 h
# Description: Cytotoxicity against human HCC78 cells harboring SLC34A2-ROS1 assessed as reduction in cell proliferation after 72 hrs by MTT assay
# cells [3] = details: Homo sapiens, KARPAS-299, 72 h
# Description: Cytotoxicity against human KARPAS299 cells harboring NPM-ALK assessed as reduction in cell proliferation after 72 hrs by MTT assay
# cells [4] = details: Homo sapiens, HT-29, 72 h
# Description: Cytotoxicity against human HT-29 cells assessed as reduction in cell proliferation after 72 hrs by MTT assay
# cells [5] = details: Homo sapiens, A549, 72 h
# Description: Cytotoxicity against human A549 cells assessed as reduction in cell proliferation after 72 hrs by MTT assay
# [6] = biological target: Hepatocyte growth factor receptor (Homo sapiens, UniProt P08581)
# Description: Inhibition of c-Met (unknown origin) using peptide as substrate after 60 mins by HTRF assay
# [7] = biological target: T1, ALK tyrosine kinase receptor (Homo sapiens, UniProt Q9UM73)
# Description: Inhibition of ALK (unknown origin) using peptide as substrate after 60 mins by HTRF assay
# [8] = biological target: Proto-oncogene tyrosine-protein kinase ROS (Homo sapiens, UniProt P08922)
# Sequence of Proto-oncogene tyrosine-protein kinase ROS (P08922 whole entry): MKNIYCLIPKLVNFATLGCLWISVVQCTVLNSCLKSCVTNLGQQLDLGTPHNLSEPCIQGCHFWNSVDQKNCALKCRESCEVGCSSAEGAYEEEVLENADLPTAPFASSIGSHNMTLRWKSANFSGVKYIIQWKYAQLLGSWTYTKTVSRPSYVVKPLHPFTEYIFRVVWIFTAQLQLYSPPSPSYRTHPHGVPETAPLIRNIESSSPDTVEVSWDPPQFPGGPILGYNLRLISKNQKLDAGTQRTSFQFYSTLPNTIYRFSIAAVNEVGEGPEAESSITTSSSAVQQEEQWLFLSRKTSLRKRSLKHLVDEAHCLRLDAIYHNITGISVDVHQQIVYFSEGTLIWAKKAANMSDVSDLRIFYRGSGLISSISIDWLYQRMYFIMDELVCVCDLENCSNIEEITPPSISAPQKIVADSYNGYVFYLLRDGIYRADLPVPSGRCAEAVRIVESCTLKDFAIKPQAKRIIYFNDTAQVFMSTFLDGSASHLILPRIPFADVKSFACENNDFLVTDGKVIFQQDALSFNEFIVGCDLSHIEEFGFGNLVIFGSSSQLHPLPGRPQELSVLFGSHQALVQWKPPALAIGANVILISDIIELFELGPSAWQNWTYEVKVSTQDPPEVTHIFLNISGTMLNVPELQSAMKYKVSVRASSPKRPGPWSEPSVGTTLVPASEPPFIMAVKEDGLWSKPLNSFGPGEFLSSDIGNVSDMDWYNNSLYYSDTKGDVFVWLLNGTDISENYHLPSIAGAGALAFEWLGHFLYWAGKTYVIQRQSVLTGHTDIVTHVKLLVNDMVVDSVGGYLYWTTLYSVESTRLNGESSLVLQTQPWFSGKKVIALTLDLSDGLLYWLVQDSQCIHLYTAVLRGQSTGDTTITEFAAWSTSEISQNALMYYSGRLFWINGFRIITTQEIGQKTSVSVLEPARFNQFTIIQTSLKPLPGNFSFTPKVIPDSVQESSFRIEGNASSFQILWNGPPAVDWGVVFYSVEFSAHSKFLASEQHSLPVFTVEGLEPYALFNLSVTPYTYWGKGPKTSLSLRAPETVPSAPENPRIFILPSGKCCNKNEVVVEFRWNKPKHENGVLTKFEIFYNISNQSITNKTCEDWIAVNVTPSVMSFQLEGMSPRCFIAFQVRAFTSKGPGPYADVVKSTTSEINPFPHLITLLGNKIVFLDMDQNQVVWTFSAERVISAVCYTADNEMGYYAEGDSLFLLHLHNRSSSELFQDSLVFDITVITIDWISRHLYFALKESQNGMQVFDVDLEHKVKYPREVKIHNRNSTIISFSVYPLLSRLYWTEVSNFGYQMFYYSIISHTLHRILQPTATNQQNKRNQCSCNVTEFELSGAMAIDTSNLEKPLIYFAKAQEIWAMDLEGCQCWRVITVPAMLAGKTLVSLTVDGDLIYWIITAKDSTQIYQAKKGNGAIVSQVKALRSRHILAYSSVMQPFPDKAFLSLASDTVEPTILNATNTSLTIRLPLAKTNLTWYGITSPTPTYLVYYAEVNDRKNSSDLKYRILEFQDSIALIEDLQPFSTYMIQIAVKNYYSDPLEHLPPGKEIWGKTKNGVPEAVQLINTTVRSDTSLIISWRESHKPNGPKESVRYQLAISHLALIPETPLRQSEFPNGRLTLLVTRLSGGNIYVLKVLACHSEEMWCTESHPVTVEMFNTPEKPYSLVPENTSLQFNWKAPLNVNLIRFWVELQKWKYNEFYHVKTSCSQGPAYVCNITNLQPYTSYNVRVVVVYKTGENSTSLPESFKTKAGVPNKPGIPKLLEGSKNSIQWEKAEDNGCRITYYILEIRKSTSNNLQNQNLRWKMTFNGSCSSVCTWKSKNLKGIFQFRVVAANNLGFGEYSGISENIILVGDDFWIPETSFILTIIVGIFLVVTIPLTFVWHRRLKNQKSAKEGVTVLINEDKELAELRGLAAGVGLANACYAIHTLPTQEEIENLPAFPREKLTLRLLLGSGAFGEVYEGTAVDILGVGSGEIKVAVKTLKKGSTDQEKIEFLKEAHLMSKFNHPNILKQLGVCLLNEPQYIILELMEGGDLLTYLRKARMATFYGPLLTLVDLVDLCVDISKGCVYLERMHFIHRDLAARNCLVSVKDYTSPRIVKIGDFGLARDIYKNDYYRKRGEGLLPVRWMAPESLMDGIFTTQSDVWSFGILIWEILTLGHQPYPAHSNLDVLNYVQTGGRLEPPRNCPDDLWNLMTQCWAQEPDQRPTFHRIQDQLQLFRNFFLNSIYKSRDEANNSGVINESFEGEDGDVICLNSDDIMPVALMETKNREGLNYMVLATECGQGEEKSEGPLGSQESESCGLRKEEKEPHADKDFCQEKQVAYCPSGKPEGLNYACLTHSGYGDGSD
# Description: Inhibition of ROS1 (unknown origin) using peptide as substrate after 60 mins by HTRF assay
# [9] = biological target: Epidermal growth factor receptor (Homo sapiens, UniProt P00533)
# Sequence of Epidermal growth factor receptor (P00533 whole entry): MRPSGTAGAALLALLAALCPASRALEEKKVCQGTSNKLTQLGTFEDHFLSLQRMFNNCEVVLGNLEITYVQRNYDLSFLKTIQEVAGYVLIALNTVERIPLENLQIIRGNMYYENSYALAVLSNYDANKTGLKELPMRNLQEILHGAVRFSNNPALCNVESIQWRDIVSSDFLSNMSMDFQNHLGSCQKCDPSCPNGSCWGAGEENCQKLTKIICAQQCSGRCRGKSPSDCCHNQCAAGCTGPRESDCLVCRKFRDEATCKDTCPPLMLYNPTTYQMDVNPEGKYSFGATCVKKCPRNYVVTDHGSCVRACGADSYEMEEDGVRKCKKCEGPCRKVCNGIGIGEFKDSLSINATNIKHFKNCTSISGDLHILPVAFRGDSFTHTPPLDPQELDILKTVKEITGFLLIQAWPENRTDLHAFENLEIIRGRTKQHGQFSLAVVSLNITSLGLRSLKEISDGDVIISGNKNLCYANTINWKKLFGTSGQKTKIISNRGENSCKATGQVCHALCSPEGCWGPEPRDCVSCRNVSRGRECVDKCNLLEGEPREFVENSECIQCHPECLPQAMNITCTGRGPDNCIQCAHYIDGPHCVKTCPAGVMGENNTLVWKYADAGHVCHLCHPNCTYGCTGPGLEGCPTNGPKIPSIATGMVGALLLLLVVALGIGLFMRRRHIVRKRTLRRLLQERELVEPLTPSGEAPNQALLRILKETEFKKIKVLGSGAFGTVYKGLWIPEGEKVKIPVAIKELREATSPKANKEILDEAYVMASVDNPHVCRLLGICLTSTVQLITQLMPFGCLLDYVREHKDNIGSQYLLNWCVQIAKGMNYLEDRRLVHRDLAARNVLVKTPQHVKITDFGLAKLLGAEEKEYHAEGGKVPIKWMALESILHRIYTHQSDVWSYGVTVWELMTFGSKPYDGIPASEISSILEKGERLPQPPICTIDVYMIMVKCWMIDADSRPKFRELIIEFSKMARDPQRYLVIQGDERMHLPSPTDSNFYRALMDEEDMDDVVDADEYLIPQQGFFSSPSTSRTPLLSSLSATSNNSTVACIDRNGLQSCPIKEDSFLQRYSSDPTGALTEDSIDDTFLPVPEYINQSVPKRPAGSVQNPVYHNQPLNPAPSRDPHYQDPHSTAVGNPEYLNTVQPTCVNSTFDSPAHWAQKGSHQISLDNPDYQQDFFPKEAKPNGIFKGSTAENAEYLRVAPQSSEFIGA
# Description: Inhibition of EGFR (unknown origin) using peptide as substrate after 60 mins by HTRF assay
# [10] = tested on: ALK tyrosine kinase receptor (Homo sapiens), Q9UM73 [L1196M]; test: Potency index, ratio of crizotinib IC50 to compound IC50 for ALK L1196M mutant (unknown origin)
# [11] = biological target: ALK tyrosine kinase receptor (Homo sapiens, UniProt Q9UM73, L1196M)
# Sequence of ALK tyrosine kinase receptor (Homo sapiens, UniProt Q9UM73, L1196M) (Q9UM73 19-1620 L1196M limits assumed): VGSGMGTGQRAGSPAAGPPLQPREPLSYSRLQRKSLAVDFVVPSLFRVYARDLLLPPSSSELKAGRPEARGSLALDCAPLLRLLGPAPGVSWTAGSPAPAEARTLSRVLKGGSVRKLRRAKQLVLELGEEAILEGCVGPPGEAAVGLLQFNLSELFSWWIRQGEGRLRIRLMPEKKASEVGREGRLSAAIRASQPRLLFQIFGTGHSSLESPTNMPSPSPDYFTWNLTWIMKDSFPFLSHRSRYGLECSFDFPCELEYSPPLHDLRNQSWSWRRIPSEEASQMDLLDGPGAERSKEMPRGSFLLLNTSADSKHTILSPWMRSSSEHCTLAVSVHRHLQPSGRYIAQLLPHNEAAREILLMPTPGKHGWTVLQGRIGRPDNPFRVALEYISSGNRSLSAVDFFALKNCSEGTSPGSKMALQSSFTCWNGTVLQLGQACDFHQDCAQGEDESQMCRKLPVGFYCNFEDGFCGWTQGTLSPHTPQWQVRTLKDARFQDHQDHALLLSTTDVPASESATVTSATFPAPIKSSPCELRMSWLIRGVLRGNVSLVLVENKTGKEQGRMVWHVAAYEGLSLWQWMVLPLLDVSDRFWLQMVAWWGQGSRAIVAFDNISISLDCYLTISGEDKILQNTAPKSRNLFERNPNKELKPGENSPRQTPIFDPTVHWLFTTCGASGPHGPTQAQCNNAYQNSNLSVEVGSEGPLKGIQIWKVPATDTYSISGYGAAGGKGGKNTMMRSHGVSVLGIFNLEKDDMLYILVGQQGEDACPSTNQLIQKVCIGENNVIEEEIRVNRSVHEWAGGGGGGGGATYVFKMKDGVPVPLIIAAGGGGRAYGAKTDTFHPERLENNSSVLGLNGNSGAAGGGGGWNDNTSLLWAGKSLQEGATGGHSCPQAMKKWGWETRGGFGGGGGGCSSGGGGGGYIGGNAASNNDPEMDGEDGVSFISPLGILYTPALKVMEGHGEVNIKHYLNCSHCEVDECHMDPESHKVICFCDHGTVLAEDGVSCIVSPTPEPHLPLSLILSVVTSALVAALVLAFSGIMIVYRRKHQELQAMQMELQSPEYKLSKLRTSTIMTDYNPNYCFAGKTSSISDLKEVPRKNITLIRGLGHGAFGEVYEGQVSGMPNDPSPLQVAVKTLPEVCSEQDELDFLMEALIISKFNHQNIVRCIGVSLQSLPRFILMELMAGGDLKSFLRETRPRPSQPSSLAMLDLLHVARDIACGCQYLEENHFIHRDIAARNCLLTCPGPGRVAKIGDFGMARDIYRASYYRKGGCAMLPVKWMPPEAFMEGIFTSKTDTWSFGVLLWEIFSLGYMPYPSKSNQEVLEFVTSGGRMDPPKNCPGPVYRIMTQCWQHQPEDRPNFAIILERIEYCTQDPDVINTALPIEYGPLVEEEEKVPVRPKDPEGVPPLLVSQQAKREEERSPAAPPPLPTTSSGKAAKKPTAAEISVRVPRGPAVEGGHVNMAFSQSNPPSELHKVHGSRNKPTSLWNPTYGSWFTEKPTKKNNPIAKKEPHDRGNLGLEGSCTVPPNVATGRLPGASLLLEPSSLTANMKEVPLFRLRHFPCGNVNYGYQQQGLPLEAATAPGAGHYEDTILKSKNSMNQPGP
# [12] = biological target: T1, ALK tyrosine kinase receptor; test: Potency index, ratio of crizotinib IC50 to compound IC50 for ALK (unknown origin)
# HCC78 = test: Potency index, ratio of crizotinib IC50 to compound IC50 against human HCC78 cells harboring SLC34A2-ROS1; assay type: functional
# KARPAS-299 = test: Potency index, ratio of crizotinib IC50 to compound IC50 against human KARPAS299 cells harboring NPM-ALK; assay type: functional
IC50 (cells [1]),IC50 (cells [2]),IC50 (cells [3]),IC50 (cells [4]),IC50 (cells [5]),IC50 [6],IC50 [7],IC50 [8],IC50 [9],Ratio IC50 [10],IC50 [11],Ratio IC50 [12],Compound,Ratio IC50 (HCC78),Ratio IC50 (KARPAS-299)
> 10000 nM,18 nM,27 nM,> 10000 nM,> 10000 nM,–,–,–,–,–,–,–,Cc1cc(Nc2ncc(Cl)c(Nc3ccccc3S(=O)(=O)C(C)C)n2)c(OC(C)C)cc1C1CCNCC1 [CERITINIB],–,–
1030 nM,2520 nM,750 nM,3100 nM,1940 nM,–,–,–,–,–,–,–,CC(C)S(=O)(=O)c1ccccc1Nc1nc(N/N=C/c2ccco2)ncc1Cl,–,–
1200 nM,31 nM,30 nM,1930 nM,980 nM,393 nM,5.5 nM,5.5 nM,898 nM,20,79 nM,–,CC(C)S(=O)(=O)c1ccccc1Nc1nc(N/N=C/c2ccc(OC(F)(F)F)cc2)ncc1Cl,–,–
1130 nM,820 nM,870 nM,980 nM,1420 nM,–,–,–,–,–,–,–,CC(C)S(=O)(=O)c1ccccc1Nc1nc(N/N=C/c2ccncc2)ncc1Cl,–,–
1530 nM,970 nM,930 nM,830 nM,1150 nM,–,–,–,–,–,–,–,CC(C)S(=O)(=O)c1ccccc1Nc1nc(N/N=C/c2cccnc2)ncc1Cl,–,–
> 10000 nM,82 nM,35 nM,1120 nM,940 nM,380 nM,3.6 nM,3.4 nM,593 nM,20,73 nM,–,CC(C)S(=O)(=O)c1ccccc1Nc1nc(N/N=C/c2ccc(C(F)(F)F)cc2)ncc1Cl,–,–
> 10000 nM,2380 nM,2500 nM,> 10000 nM,4840 nM,–,–,–,–,–,–,–,C/C(=N\Nc1ncc(Cl)c(Nc2ccccc2S(=O)(=O)C(C)C)n1)c1ccc(Br)cc1,–,–
1300 nM,19 nM,16 nM,1760 nM,1400 nM,220 nM,2.3 nM,1.8 nM,570 nM,20,45 nM,9,CC(C)S(=O)(=O)c1ccccc1Nc1nc(N/N=C/c2ccc(F)cc2)ncc1Cl,–,–
> 10000 nM,2840 nM,2230 nM,> 10000 nM,> 10000 nM,–,–,–,–,–,–,–,C/C(=N\Nc1ncc(Cl)c(Nc2ccccc2S(=O)(=O)C(C)C)n1)c1ccc(C)cc1,–,–
7150 nM,600 nM,540 nM,> 10000 nM,> 10000 nM,–,–,–,–,–,–,–,C/C(=N\Nc1ncc(Cl)c(Nc2ccccc2S(=O)(=O)C(C)C)n1)c1ccccc1F,–,–
3360 nM,110 nM,100 nM,> 10000 nM,2280 nM,–,–,–,–,–,–,–,CC(C)S(=O)(=O)c1ccccc1Nc1nc(N/N=C/c2ccc(F)cc2F)ncc1Cl,–,–
1230 nM,360 nM,450 nM,1420 nM,> 10000 nM,–,–,–,–,–,–,–,CC(C)S(=O)(=O)c1ccccc1Nc1nc(N/N=C/c2ccccc2F)ncc1Cl,–,–
570 nM,880 nM,910 nM,880 nM,470 nM,–,–,–,–,–,–,–,CC(C)S(=O)(=O)c1ccccc1Nc1nc(N/N=C/c2cccs2)ncc1Cl,–,–
> 10000 nM,80 nM,65 nM,5500 nM,3340 nM,479 nM,5.5 nM,5 nM,460 nM,20,69 nM,–,CC(C)S(=O)(=O)c1ccccc1Nc1nc(N/N=C/c2cccc(C(F)(F)F)c2)ncc1Cl,–,–
3130 nM,950 nM,1440 nM,2300 nM,1310 nM,–,–,–,–,–,–,–,CC(C)S(=O)(=O)c1ccccc1Nc1nc(N/N=C/c2ccc(Br)cc2)ncc1Cl,–,–
> 10000 nM,4160 nM,6930 nM,> 10000 nM,7040 nM,–,–,–,–,–,–,–,COc1ccccc1/C=N/Nc1ncc(Cl)c(Nc2ccccc2S(=O)(=O)C(C)C)n1,–,–
1320 nM,20 nM,28 nM,1130 nM,580 nM,157 nM,4.8 nM,2.3 nM,587 nM,20,82 nM,–,COc1ccc(/C=N/Nc2ncc(Cl)c(Nc3ccccc3S(=O)(=O)C(C)C)n2)cc1,–,–

IC50 (cells [1]),IC50 (cells [2]),IC50 (cells [3]),IC50 (cells [4]),IC50 (cells [5]),IC50 [6],IC50 [7],IC50 [8],IC50 [9],Ratio IC50 [10],IC50 [11],Ratio IC50 [12],Compound,Ratio IC50 (HCC78),Ratio IC50 (KARPAS-299)
> 10000 nM,1980 nM,2970 nM,1720 nM,9250 nM,–,–,–,–,–,–,–,CC(C)S(=O)(=O)c1ccccc1Nc1nc(N/N=C/c2ccc([N+](=O)[O-])cc2)ncc1Cl,–,–
2230 nM,44 nM,22 nM,5570 nM,1250 nM,376 nM,6.2 nM,5.8 nM,601 nM,20,86 nM,–,COc1cccc(/C=N/Nc2ncc(Cl)c(Nc3ccccc3S(=O)(=O)C(C)C)n2)c1,–,–
2500 nM,31 nM,34 nM,> 10000 nM,2120 nM,> 1000 nM,4.9 nM,4.7 nM,> 1000 nM,20,80 nM,–,COc1ccc(/C(C)=N/Nc2ncc(Cl)c(Nc3ccccc3S(=O)(=O)C(C)C)n2)cc1,–,–
> 10000 nM,670 nM,440 nM,2120 nM,1650 nM,–,–,–,–,–,–,–,C/C(=N\Nc1ncc(Cl)c(Nc2ccccc2S(=O)(=O)C(C)C)n1)c1ccc(F)cc1F,–,–
2830 nM,270 nM,340 nM,2960 nM,2510 nM,–,–,–,–,–,–,–,CC(C)S(=O)(=O)c1ccccc1Nc1nc(N/N=C/c2ccc(C#N)cc2)ncc1Cl,–,–
320 nM,210 nM,280 nM,980 nM,880 nM,–,–,–,–,–,–,–,CSc1ccc(/C=N/Nc2ncc(Cl)c(Nc3ccccc3S(=O)(=O)C(C)C)n2)cc1,–,–
> 10000 nM,28 nM,20 nM,> 10000 nM,> 10000 nM,> 1000 nM,2.5 nM,2.7 nM,> 1000 nM,20,67 nM,9,C/C(=N\Nc1ncc(Cl)c(Nc2ccccc2S(=O)(=O)C(C)C)n1)c1ccc(F)cc1,11.1,2.4
2900 nM,1700 nM,1320 nM,8190 nM,2930 nM,–,–,–,–,–,–,–,CC(C)S(=O)(=O)c1ccccc1Nc1nc(N/N=C/c2ccc(Cl)cc2)ncc1Cl,–,–
1480 nM,470 nM,250 nM,1320 nM,1230 nM,–,–,–,–,–,–,–,CC(C)S(=O)(=O)c1ccccc1Nc1nc(N/N=C/c2ccccc2)ncc1Cl,–,–
1650 nM,1730 nM,1620 nM,> 10000 nM,4420 nM,–,–,–,–,–,–,–,Cc1ccc(/C=N/Nc2ncc(Cl)c(Nc3ccccc3S(=O)(=O)C(C)C)n2)cc1,–,–
> 10000 nM,1200 nM,1400 nM,1030 nM,1090 nM,–,–,–,–,–,–,–,CC(C)S(=O)(=O)c1ccccc1Nc1nc(N/N=C/c2cccc(Br)c2)ncc1Cl,–,–
2020 nM,310 nM,240 nM,1100 nM,1330 nM,–,–,–,–,–,–,–,CC(C)S(=O)(=O)c1ccccc1Nc1nc(N/N=C/c2ccc(S(C)(=O)=O)cc2)ncc1Cl,–,–
1230 nM,19 nM,20 nM,2150 nM,1150 nM,–,–,–,–,–,–,–,COc1cc(/C=N/Nc2ncc(Cl)c(Nc3ccccc3S(=O)(=O)C(C)C)n2)cc(OC)c1OC,–,–
6840 nM,310 nM,270 nM,> 10000 nM,> 10000 nM,–,–,–,–,–,–,–,C/C(=N\Nc1ncc(Cl)c(Nc2ccccc2S(=O)(=O)C(C)C)n1)c1ccc(C#N)cc1,–,–
> 10000 nM,850 nM,490 nM,5430 nM,> 10000 nM,–,–,–,–,–,–,–,CSc1ccc(/C(C)=N/Nc2ncc(Cl)c(Nc3ccccc3S(=O)(=O)C(C)C)n2)cc1,–,–
7120 nM,6300 nM,5620 nM,> 10000 nM,7900 nM,–,–,–,–,–,–,–,CC(C)S(=O)(=O)c1ccccc1Nc1nc(N/N=C/c2ccccc2Cl)ncc1Cl,–,–
